In assay [1] the test system is Drosophila melanogaster. Briefly: Insecticidal bioassay with Drosophila flies, lethal dose (LD50) 24 h after injection. It counts as in vivo. Particulars: for LD50: synthetic C-terminally amidated peptide in 0.1 M ammonium acetate pH 6.1, 0.05 µl injected intrathoracically into flight muscles of female flies (1- to 7-days old), 50% of flies die after 24 h, minimum five doses, each n = 20, PRISM Vers. 6.07. The protocol: The insecticidal activity of different cupiennins was investigated in a bioassay with Drosophila melanogaster and the lethal dose, where 50% of the insects die of intoxication after 24 h of injection, calculated. […] The shorter LPs such as Cu 3a, d, and Cu 4a, were with 12.4–38.5 pmol/mg fly less toxic.
Cupiennins 3a, 3b, 4a, 6a, 6b, 6d, 7b, 8, and the two-chain CsTx-16a1b1, and CsTx-16c1d1 were synthesized (all C-terminally amidated) by GeneCust, (Dulange, Luxembourg). Bioassays using Drosophila flies were performed as described elsewhere. Briefly, all peptides were dissolved in 0.1 M ammonium acetate, pH 6.1 and 0.05 µl injected intrathoracically into the flight muscles of female flies (1- to 7-days old). For each peptide, in minimum five different peptide doses were injection into the flies (each n = 20) and also a negative control with only buffer was injected (n = 10). Calculations of the lethal dose (LD50) were done with GraphPad PRISM Vers. 6.07 (GraphPad Software, San Diego, CA, USA).

Assay [2] relates to Drosophila melanogaster. Particulars: Drosophila flies, 0.05 µl injected, 50% of flies die after 24 h; cited from earlier work. The protocol:
Table 3 Insecticidal activities of selected cupiennins, CsTx-16 variants, neurotoxins CsTx-1, CsTx-9, and CsTx-13, and cyto-insectotoxin CIT1a. Different concentrations of peptides were dissolved in 0.1 M ammonium acetate, pH 6.1, and 0.05 µl was injected into Drosophila flies. The lethal dose (LD50, pmol/mg fly), where 50% of the flies die after 24 h, was calculated with PRISM Vers. 6.07. * Data | column: LD50 / (pmol/mg fly)

Like-named read-outs stand apart in the source and are kept apart here. Ends that are not written are not given here.

For the substance “Cu 8: Cu 8 family linear peptide of 20 residues, transcript B, synthesized by GeneCust (IWRMPKKVLKLLAAFRGKEG-NH2)”, the “Toxicity ranking among tested cupiennins” value with Drosophila melanogaster [1] (Drosophila, LD50 after 24 h) is reported as “lowest toxicity”. Further, the LD50 in the assay on Drosophila melanogaster [1] stood at 159.7 pmol/mg fly. On to “Cu 1b: cytolytic linear cationic peptide, Cu 1 family, transcript C1 (GFGSLFKFLAKKVAKTVAKQAAKQGAKYIANKQMEG-NH2)”, for which the LD50 with Drosophila melanogaster [2] is listed as 4.7 pmol/mg fly.

“Cu 3a: Cu 3 family linear peptide, synthesized by GeneCust (GFGSLFKFLGKKLLKTVAKQAAKKQMEG-NH2)” displayed an LD50 in the assay with Drosophila melanogaster [1] of 18.7 pmol/mg fly. Still for that read-out and setting: the same measure for “Cu 6d: Cu 6 family linear peptide, synthesized by GeneCust (FINTIKLLIEKYREWKNKQSSG-NH2)”: 23.2 pmol/mg fly.

The values are drawn from article PMC7889660, “Complex precursor structures of cytolytic cupiennins identified in spider venom gland transcriptomes” (Scientific Reports, 2021).
